Source: PubChem BioAssay (NCI)
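Step 1: Grow cells in 96-well plates. Step 2: Expose to compound for 48 hours at 5 concentrations. Step 3: Interpolate endpoints linearly; if unreached, use highest concentration. Abbreviation: GI50, concentration required for 50% inhibition of growth. TGI: total growth inhibition.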

What was measured:
Assay in all cases: DTP human tumour cell line panel, 48 h
[1] = tested on: NCI-H460 lung
[2] = tested on: MCF7 breast
[3] = tested on: A549 NSCLC
[4] = tested on: NCI-H522 lung
[5] = tested on: UACC-62 melanoma
[6] = tested on: SNB-19 CNS
[7] = tested on: TK-10 renal
[8] = tested on: NCI-H226 lung
[9] = tested on: UACC-257 melanoma
[10] = tested on: A498 renal
[11] = tested on: SW-620 colon
[12] = tested on: HOP-62 NSCLC
[13] = tested on: OVCAR-3 ovarian
[14] = tested on: SF-539 CNS
[15] = tested on: SN12C renal
[16] = tested on: NCI/ADR-RES ovarian
[17] = tested on: SF-295 CNS
[18] = tested on: HL-60(TB) leukemia
[19] = tested on: ACHN renal
[20] = tested on: MDA-MB-435
[21] = tested on: HT29 colon
[22] = tested on: SR leukemia
[23] = tested on: HCT-116 colon
[24] = tested on: OVCAR-8 ovarian
[25] = tested on: SNB-75 CNS
[26] = tested on: SK-OV-3 ovarian
[27] = tested on: HCT-15 colon
[28] = tested on: SK-MEL-2 melanoma
[29] = tested on: MOLT-4 leukemia
[30] = tested on: MALME-3M melanoma
[31] = tested on: KM12 colon
[32] = tested on: HOP-92 NSCLC
[33] = tested on: 786-0 renal
[34] = tested on: EKVX NSCLC
[35] = tested on: UO-31 renal
[36] = tested on: PC-3 prostate
[37] = tested on: MDA-MB-231 breast
[38] = tested on: CCRF-CEM leukemia
[39] = tested on: U251 CNS
[40] = tested on: T-47D breast
[41] = tested on: HCC-2998 colon
[42] = tested on: IGROV1 ovarian
[43] = tested on: SF-268 CNS
[44] = tested on: COLO 205 colon
[45] = tested on: HS 578T breast
[46] = tested on: CAKI-1 renal
[47] = tested on: SK-MEL-28 melanoma
[48] = tested on: MDA-MB-468 breast
[49] = tested on: K-562 leukemia
[50] = tested on: DU-145 prostate
[51] = tested on: BT-549 breast
[52] = tested on: M14 melanoma
[53] = tested on: SK-MEL-5 melanoma
[54] = tested on: RPMI-8226 leukemia
[55] = tested on: OVCAR-4 ovarian
[56] = tested on: NCI-H23 lung
[57] = tested on: OVCAR-5 ovarian
[58] = tested on: RXF 393 renal
[59] = tested on: LOX IMVI melanoma

## COc1ccc(-c2nnc3c(/C=C/c4ccc(Br)cc4)nc4ccccc4n23)cc1
[1]
  GI50: 11.2 µM
  TGI: 23.2 µM
[2]
  GI50: 2.8 µM
  TGI: 14.9 µM
[3]
  GI50: 12 µM
  TGI: 24.4 µM
[4]
  GI50: 0.156 µM
  TGI: 0.301 µM
[5]
  GI50: 5.61 µM
  TGI: 19.5 µM
[6]
  GI50: 13.7 µM
  TGI: 26.8 µM
[7]
  GI50: 13.5 µM
  TGI: 26.3 µM
[8]
  GI50: 1.68 µM
  TGI: 4.5 µM
[9]
  GI50: 13.1 µM
  TGI: 25.8 µM
[10]
  GI50: 22.8 µM
  TGI: 91.4 µM
[11]
  GI50: 0.728 µM
  TGI: 2.24 µM
[12]
  GI50: 15.5 µM
  TGI: 32 µM
[13]
  GI50: 3.43 µM
  TGI: 14 µM
[14]
  GI50: 2.45 µM
  TGI: 6.91 µM
[15]
  GI50: 2.24 µM
  TGI: 8.9 µM
[16]
  GI50: 10.3 µM
  TGI: 25.9 µM
[17]
  GI50: 16 µM
  TGI: 33.1 µM
[18]
  GI50: 3.43 µM
  TGI: 16.8 µM
[19]
  GI50: 2.55 µM
  TGI: 9.06 µM
[20]
  GI50: 11.7 µM
  TGI: 23.9 µM
[21]
  GI50: 2.56 µM
  TGI: 9.29 µM
[22]
  GI50: 1.04 µM
  TGI: 3.94 µM
[23]
  GI50: 1.47 µM
  TGI: 3.2 µM
[24]
  GI50: 10.4 µM
  TGI: 22.1 µM
[25]
  GI50: 16 µM
  TGI: 34.1 µM
[26]
  GI50: 21.7 µM
  TGI: 64 µM
[27]
  GI50: 1.47 µM
  TGI: 3.25 µM
[28]
  GI50: 10.9 µM
  TGI: 22.8 µM
[29]
  GI50: 2.7 µM
  TGI: 12.1 µM
[30]
  GI50: 1.3 µM
  TGI: 2.72 µM
[31]
  GI50: 12.6 µM
  TGI: 25.1 µM
[32]
  GI50: 1.14 µM
  TGI: 7.29 µM
[33]
  GI50: 1.54 µM
  TGI: 3.81 µM
[34]
  GI50: 12.1 µM
  TGI: 26.1 µM
[35]
  GI50: 2.93 µM
  TGI: 16.4 µM
[36]
  GI50: 11.4 µM
  TGI: 23.5 µM
[37]
  GI50: 4.82 µM
  TGI: 17.5 µM
[38]
  GI50: 1.39 µM
  TGI: 4.9 µM
[39]
  GI50: 6.97 µM
  TGI: 19.7 µM
[40]
  GI50: 10.5 µM
  TGI: 25.5 µM
[41]
  GI50: 12.1 µM
  TGI: 24.5 µM
[42]
  GI50: 10.7 µM
  TGI: 22.6 µM
[43]
  GI50: 14.4 µM
  TGI: 34.7 µM
[44]
  GI50: 4.19 µM
  TGI: 15.1 µM
[45]
  GI50: 16.7 µM
  TGI: 57 µM
[46]
  GI50: 11.3 µM
  TGI: 23.3 µM
[47]
  GI50: 8.85 µM
  TGI: 21.1 µM
[48]
  GI50: 2.08 µM
  TGI: 8.39 µM
[49]
  GI50: 0.431 µM
  TGI: 13.1 µM
[50]
  GI50: 5.24 µM
  TGI: 17.7 µM
[51]
  GI50: 2.37 µM
  TGI: 15.3 µM
[52]
  GI50: 2.41 µM
  TGI: 10.2 µM
[53]
  GI50: 10.8 µM
  TGI: 22.7 µM
[54]
  GI50: 4.11 µM
  TGI: 18.4 µM
[55]
  GI50: 3.96 µM
  TGI: 16.4 µM
[56]
  GI50: 9.39 µM
  TGI: 21.3 µM
[57]
  GI50: 3.97 µM
  TGI: 16 µM
[58]
  GI50: 1.24 µM
  TGI: 2.53 µM
[59]
  GI50: 0.883 µM
  TGI: 2.11 µM

## CS(=O)(=O)Nc1ccc(-c2ccc3c(c2)ncn3-c2ccc(NC(=O)Nc3ccc(Cl)c(C(F)(F)F)c3)cc2)cc1
[1]
  GI50: 2.64 µM
  TGI: 9.49 µM
[2]
  GI50: 1.86 µM
  TGI: 5.04 µM
[3]
  GI50: 3 µM
  TGI: 10.8 µM
[4]
  GI50: 2.33 µM
  TGI: 8.12 µM
[5]
  GI50: 1.91 µM
  TGI: 4.23 µM
[6]
  GI50: 3.23 µM
  TGI: 12 µM
[7]
  GI50: 3.83 µM
  TGI: 13.5 µM
[8]
  GI50: 3.05 µM
  TGI: 11.8 µM
[9]
  GI50: 2.43 µM
  TGI: 6.85 µM
[10]
  GI50: 2.42 µM
  TGI: 7.41 µM
[11]
  GI50: 2.97 µM
  TGI: 12.8 µM
[12]
  GI50: 2.06 µM
  TGI: 4.96 µM
[13]
  GI50: 3.17 µM
  TGI: 10.6 µM
[14]
  GI50: 1.56 µM
  TGI: 6.52 µM
[15]
  GI50: 2.99 µM
  TGI: 11.2 µM
[16]
  GI50: 5.19 µM
  TGI: 24.8 µM
[17]
  GI50: 1.54 µM
  TGI: 3.21 µM
[18]
  GI50: 1.79 µM
  TGI: 4.02 µM
[19]
  GI50: 2.72 µM
  TGI: 9.66 µM
[20]
  GI50: 2.97 µM
  TGI: 12.4 µM
[21]
  GI50: 2.95 µM
  TGI: 10.8 µM
[22]
  GI50: 1.61 µM
  TGI: 3.71 µM
[23]
  GI50: 2.9 µM
  TGI: 9.97 µM
[24]
  GI50: 2.38 µM
  TGI: 6.87 µM
[26]
  GI50: 2.84 µM
  TGI: 9.55 µM
[27]
  GI50: 2.73 µM
  TGI: 10.1 µM
[29]
  GI50: 1.72 µM
  TGI: 5.05 µM
[30]
  GI50: 2.1 µM
  TGI: 5.58 µM
[31]
  GI50: 0.38 µM
  TGI: 9.59 µM
[32]
  GI50: 3.41 µM
  TGI: 8.67 µM
[33]
  GI50: 1.87 µM
  TGI: 4.42 µM
[34]
  GI50: 2.89 µM
  TGI: 10.2 µM
[36]
  GI50: 2.81 µM
  TGI: 10.3 µM
[38]
  GI50: 2.72 µM
  TGI: 8.84 µM
[39]
  GI50: 2.49 µM
  TGI: 10.8 µM
[40]
  GI50: 2.69 µM
  TGI: 12.2 µM
[41]
  GI50: 4.32 µM
  TGI: 14.7 µM
[42]
  GI50: 3.24 µM
  TGI: 11.5 µM
[43]
  GI50: 3.42 µM
  TGI: 15.4 µM
[44]
  GI50: 2.05 µM
  TGI: 5.15 µM
[45]
  GI50: 2.14 µM
  TGI: 6.46 µM
[46]
  GI50: 4.73 µM
  TGI: 20.9 µM
[47]
  GI50: 2.53 µM
  TGI: 10.3 µM
[48]
  GI50: 2.43 µM
  TGI: 7.78 µM
[49]
  GI50: 1.95 µM
  TGI: 5.48 µM
[50]
  GI50: 3.84 µM
  TGI: 17.1 µM
[51]
  GI50: 2.99 µM
  TGI: 7.17 µM
[52]
  GI50: 2.38 µM
  TGI: 9.11 µM
[53]
  GI50: 1.85 µM
  TGI: 3.87 µM
[54]
  GI50: 1.9 µM
  TGI: 5.16 µM
[55]
  GI50: 4.05 µM
  TGI: 21.1 µM
[56]
  GI50: 2.42 µM
  TGI: 7.92 µM
[57]
  GI50: 3.03 µM
  TGI: 11.1 µM
[58]
  GI50: 1.05 µM
  TGI: 3.83 µM
[59]
  GI50: 2.63 µM
  TGI: 7.31 µM
